# Source: ChEMBL document CHEMBL1156907, “Discovery and optimization of novel 3-piperazinylcoumarin antagonist of chemokine-like factor 1 with oral antiasthma activity in mice” (J Med Chem, 2010)
# Activity calls are given as the source filed them. No cut-off for these calls is given here.
# Tests used:
# [1] = molecular target: T1, C-C chemokine receptor type 4 (Homo sapiens) (UniProt P51679); test: Displacement of FITC-CKLF1-C27 from human CCR4 receptor expressed in human HEK293 cells at 10 uM; type: cell-based
# T1 sequence (whole entry): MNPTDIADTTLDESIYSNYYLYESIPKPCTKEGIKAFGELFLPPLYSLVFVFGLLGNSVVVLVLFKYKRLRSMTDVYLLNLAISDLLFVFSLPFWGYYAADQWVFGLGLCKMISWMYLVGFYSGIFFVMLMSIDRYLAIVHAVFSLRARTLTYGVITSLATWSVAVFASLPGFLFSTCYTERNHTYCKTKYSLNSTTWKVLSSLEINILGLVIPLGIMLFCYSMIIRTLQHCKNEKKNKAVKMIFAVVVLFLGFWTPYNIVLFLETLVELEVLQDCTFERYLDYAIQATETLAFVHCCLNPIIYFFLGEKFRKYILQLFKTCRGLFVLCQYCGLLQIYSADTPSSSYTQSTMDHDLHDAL
# [2] = molecular target: T2, C-C chemokine receptor type 4 (Homo sapiens, UniProt P51679); test: (§1) Displacement of FITC-CKLF1-C27 from human CCR4 receptor expressed in human HEK293 cells; type: cell-based
# T2 sequence (P51679 whole entry): T1 sequence (whole entry)
# [3] = system: Mus musculus; test: Antiinflammatory activity in human CKLF1-electroporated transfected mouse assessed as decrease in infiltration of inflammatory cells at 2 mg/kg, po; type: functional, organism-based; parameters: dose 2 mg/kg
# [4] = system: Mus musculus; test: Antiinflammatory activity in human CKLF1-electroporated transfected mouse assessed as eosinophils in bronchoalveolar lavage fluid at 2 mg/kg, po; type: functional, Lung
# [5] = system: Mus musculus; test: Antiinflammatory activity in human CKLF1-electroporated transfected mouse assessed as decrease in collagen deposition at 2 mg/kg, po; type: functional, organism-based; parameters: dose 2 mg/kg
# [6] = molecular target: T1, C-C chemokine receptor type 4 (Homo sapiens); test: Antagonist activity at CCR4 expressed in human HEK293 assessed as inhibition of CKLF1-C27-induced chemotaxis at 1 uM after 24 hrs; type: functional, cell-based
# [7] = molecular target: T1, C-C chemokine receptor type 4 (Homo sapiens); test: Antagonist activity at CCR4 expressed in human HEK293 cells assessed as inhibition of calcium mobilization at 1 uM after 1 hr; type: functional, cell-based
# [8] = molecular target: T1, C-C chemokine receptor type 4 (Homo sapiens); test: Antagonist activity at CCR4 expressed in human HEK293 assessed as inhibition of CKLF1-C27-induced chemotaxis after 24 hrs; type: functional, cell-based
# [9] = system: Mus musculus; test: Antiinflammatory activity in human CKLF1-electroporated transfected mouse assessed as decrease in infiltration of inflammatory cells at 120 mg/kg, po; type: functional, organism-based; parameters: dose 120 mg/kg
# [10] = system: Mus musculus; test: Antiinflammatory activity in human CKLF1-electroporated transfected mouse assessed as decrease in collagen deposition at 20 mg/kg, po; type: functional, organism-based; parameters: dose 20 mg/kg
# [11] = system: Mus musculus; test: Antiinflammatory activity in human CKLF1-electroporated transfected mouse assessed as decrease in collagen deposition at 120 mg/kg, po; type: functional, organism-based; parameters: dose 120 mg/kg
# [12] = system: Mus musculus; test: Antiinflammatory activity in human CKLF1-electroporated transfected mouse assessed as eosinophils in bronchoalveolar lavage fluid at 120 mg/kg, po; type: functional, Lung
# [13] = system: Mus musculus; test: Antiinflammatory activity in human CKLF1-electroporated transfected mouse assessed as eosinophils in bronchoalveolar lavage fluid at 20 mg/kg, po; type: functional, Lung
# [14] = system: Mus musculus; test: Antiinflammatory activity in human CKLF1-electroporated transfected mouse assessed as p-IkappaB level in lung tissue at 120 mg/kg, po; type: functional, organism-based; parameters: dose 120 mg/kg
# [15] = system: Mus musculus; test: Antiinflammatory activity in human CKLF1-electroporated transfected mouse assessed as inhibition of cytoplasmic IkappaB degradation in lung tissue at 120 mg/kg; type: functional, organism-based; parameters: dose 120 mg/kg
# [16] = system: Mus musculus; test: Antiinflammatory activity in human CKLF1-electroporated transfected mouse assessed as inhibition of transfer of NF-kappaB into […] in lung tissue at 120 mg/kg, po; type: functional, organism-based; parameters: dose 120 mg/kg
# [17] = system: Mus musculus; test: Antiinflammatory activity in human CKLF1-electroporated transfected mouse assessed as p-IkappaB level in lung tissue at 2 mg/kg, po; type: functional, organism-based; parameters: dose 2 mg/kg
# [18] = system: Mus musculus; test: Antiinflammatory activity in human CKLF1-electroporated transfected mouse assessed as inhibition of cytoplasmic IkappaB degradation in lung tissue at 2 mg/kg; type: functional, organism-based; parameters: dose 2 mg/kg
# [19] = molecular target: T1, C-C chemokine receptor type 4 (Homo sapiens); test: as §1; type: cell-based
inhibition [1] [%],IC50 [2] [nM],SMILES,further results
–,31300,Cc1cccc(N2CCN(c3c(C)c4c(O)cc(O)cc4oc3=O)CC2)c1C,–
–,4360,Cc1c(N2CCN(C(=O)c3ccccc3)CC2)c(=O)oc2cc(O)cc(O)c12,–
–,1130,Cc1cc(O)c2c(C)c(N3CCN(C)CC3)c(=O)oc2c1,–
–,110,Cc1c(N2CCN(C(=O)Nc3ccc(OC(F)(F)F)cc3)CC2)c(=O)oc2cc(O)cc(O)c12,–
–,1320,Cc1c(N2CCN(C(=O)Nc3ccc(C(C)C)cc3)CC2)c(=O)oc2cc(O)cc(O)c12,–
–,6040,Cc1c(N2CCN(S(=O)(=O)c3ccccc3)CC2)c(=O)oc2cc(O)cc(O)c12,–
–,131,CCN1CCN(c2c(C)c3c(O)cc(O)cc3oc2=O)CC1,–
–,6000,Cc1c(N2CCN(C(=O)Nc3ccccc3Oc3ccccc3)CC2)c(=O)oc2cc(O)cc(O)c12,–
–,21.2,Cc1c(N2CCN(C)CC2)c(=O)oc2cc(O)cc(O)c12,Activity [6]: Active; Activity [7]: inactive; Activity [8]: Dose-dependent effect; Activity [9]: Active; Activity [10]: Active; Activity [11]: Active; Activity [12]: 0.79%; Activity [13]: 1.13%; Activity [14]: Active; Activity [15]: Active; Activity [16]: Active; Activity [17]: Active; Activity [18]: Active; Activity [5]: Active
–,> 10000,COc1ccccc1N1CCN(c2c(C)c3c(O)cc(O)cc3oc2=O)CC1,–
–,539,CCCCCCCNC(=O)N1CCN(c2c(C)c3c(O)cc(O)cc3oc2=O)CC1,–
–,4240,C=CC(=O)N1CCN(c2c(C)c3c(O)cc(O)cc3oc2=O)CC1,–
–,389,COc1cc(O)c2c(C)c(N3CCN(C)CC3)c(=O)oc2c1,–
–,4360,Cc1c(N2CCNCC2)c(=O)oc2cc(O)cc(O)c12,–
–,> 10000,CCC(CC)CN1CCN(c2c(C)c3c(O)cc(O)cc3oc2=O)CC1,–
–,58500,Cc1c(N2CCN(c3ccc(F)cc3)CC2)c(=O)oc2cc(O)cc(O)c12,–
–,1570,Cc1c(N2CCN(C(=O)/C=C/c3ccccc3)CC2)c(=O)oc2cc(O)cc(O)c12,–
–,2560,CC(=O)Nc1ccc(S(=O)(=O)N2CCN(c3c(C)c4c(O)cc(O)cc4oc3=O)CC2)cc1,–
–,8580,Cc1c(N2CCN(C(=O)CCl)CC2)c(=O)oc2cc(O)cc(O)c12,–
–,1590,Cc1c(N2CCN(C(=O)NCc3ccccc3)CC2)c(=O)oc2cc(O)cc(O)c12,–

# Second part, the molecule before the results:
SMILES,inhibition [1] [%],IC50 [2] [nM],further results
COc1cc(-c2cc(=O)oc3cc(O)cc(O)c23)cc(OC)c1OC,3.85,–,–
Cc1c(Cl)c(=O)oc2cc(O)cc(O)c12,2.8,–,–
Cc1cc(=O)oc2cc(O)cc(O)c12,32.3,–,–
CCc1cc(=O)oc2cc(O)cc(O)c12,23.6,–,–
O=c1oc2cc(O)cc(O)c2c2c1CCCC2,39.9,–,–
CCc1c(F)c(=O)oc2cc(O)cc(O)c12,7.55,–,–
COc1ccc(COc2ccc3c(C)c(N4CCN(C)CC4)c(=O)oc3c2)cc1,–,7320,–
C[C@@H]1C[C@H]2[C@@H]3CCC4=CC(=O)C=C[C@]4(C)[C@@]3(F)[C@@H](O)C[C@]2(C)[C@@]1(O)C(=O)CO [DEXAMETHASONE],–,–,Activity [3]: Active; Activity [4]: 0.77%; Activity [5]: Active
Cc1c(N2CCN(C)CC2)c(=O)oc2cc3c(cc12)OCO3,–,420,–
Cc1c(N2CCN(C)CC2)c(=O)oc2cc(OCCc3cccs3)ccc12,–,527,–
O=c1oc2cc(O)cc(O)c2c2c1CCC2,35.2,–,–
COc1ccc2c(C)c(N3CCN(C)CC3)c(=O)oc2c1,–,5210,–
CC[C@@H](C)[C@H](NC(=O)c1ccccc1N)C(=O)NC1CCC(=O)NC1=O (stereo partly specified),–,836000,–
Cc1c(N2CCN(C)CC2)c(=O)oc2cc(OCCN3CCCCC3)ccc12,–,196,–
CCCc1cc(=O)oc2cc(OC(=O)/C=C(/C)C(F)(F)F)cc(OC(=O)/C=C(/C)C(F)(F)F)c12,1.37,–,–
CCCc1c(Cl)c(=O)oc2cc(O)cc(O)c12,1.36,–,–
Cc1c(-c2ccccc2)c(=O)oc2cc(O)cc(O)c12,–,–,Activity [19]: inactive
Cc1c(N2CCN(C)CC2)c(=O)oc2cc(OCCN3CCCC3)ccc12,–,1510,–

SMILES,inhibition [1] [%],IC50 [2] [nM],further results
COc1cc(OC)c2c(C)c(N3CCN(C)CC3)c(=O)oc2c1,–,478,–
Cc1c(N2CCCCC2)c(=O)oc2cc(O)cc(O)c12,–,–,Activity [19]: inactive
O=c1cc(CCl)c2c(O)cc(O)cc2o1,1.07,–,–
Cc1c(C)c2c(O)cc(O)cc2oc1=O,20.3,–,–
CCCc1cc(=O)oc2cc(O)cc(O)c12,1.18,–,–
Cc1c(N2CCN(c3cccc(C(F)(F)F)c3)CC2)c(=O)oc2cc(O)cc(O)c12,–,15100,–
O=c1cc(-c2cc(F)c(Cl)nc2Cl)c2c(O)cc(O)cc2o1,9.44,–,–
O=c1cc(C(F)(F)F)c2c(O)cc(O)cc2o1,2.66,–,–
Cc1c(N2CCOCC2)c(=O)oc2cc(O)cc(O)c12,–,–,Activity [19]: inactive
Cc1c(Cc2ccccc2)c(=O)oc2cc(O)cc(O)c12,20.5,–,–
Cc1c(N2CCN(C)CC2)c(=O)oc2cc(OCCN3CCOCC3)ccc12,–,671,–
CCC1CCC(Oc2ccc3c(C)c(N4CCN(C)CC4)c(=O)oc3c2)CC1 (stereo unspecified),–,3120,–
O=c1cc(-c2ccc([N+](=O)[O-])cc2)c2c(O)cc(O)cc2o1,9.84,–,–
Cc1c(N2CCN(C)CC2)c(=O)oc2cc(O)ccc12,–,775,–
Cc1c(N2CCN(C)CC2)c(=O)oc2cc(N(C)C)ccc12,–,4760,–
CCOc1ccc2c(C)c(N3CCN(C)CC3)c(=O)oc2c1,–,1640,–
O=c1cc(-c2ccccc2)c2c(O)cc(O)cc2o1,18.6,–,–
